Reference: article PMC7269503 (Antimicrobial Agents and Chemotherapy, 2020)
In brackets after ≈: the same amount, converted by molar mass.

Experiments:
[1] = system: OPC-167832-resistant isolates of M. tuberculosis H37Rv; assay type: cell-based
[2] = female, ICR, mouse, in vivo, po, 2.5 mg/kg

O=C1CCc2c(OC[C@]3(O)CCN(c4c(F)cc(Cl)cc4F)C[C@H]3O)ccc(F)c2N1 [OPC-167832]
MIC against Rv0678 mutants [1]: 1 ng/mL (≈ 2.19 nM) | AUCt/12 h/MIC [2]: 95 fold | Cmax/MIC [2]: 314 fold
